Patent publication US9409900B2, “Compound for increasing kinase active and application thereof” (FUJIAN HAIXI PHARMACEUTICALS, INC., priority 2010, dated 2016)

Each compound was assayed against glucokinase (Homo sapiens (Human), UniProt P35557) (assay: Glucokinase Activation Assay). Settings: 5 mM glucose, 100 nM glucokinase, G6PDH-coupled, absorbance at 340 nm, pH 7.1.
Type: biochemical
Description: The final assay volume was 200 uL and the final buffer conditions used in this assay were as follows: 25 mM HEPES, 5 mM glucose, 1 mM ATP, 2 mM MgCl2, 1 mM NAD, 1 mM DTT, 8.5 U/mL G6PDH, 100 nM glucokinase, and 25 mM KCl. The buffer pH was 7.1. The mixture A was first made containing KCl, MgCl2, DTT and Glucose in HEPES buffer. The mixture B was made containing NAD and ATP. The test compound in DMSO solution, the mixture A, the mixture B and G6PDH were first mixed in a 96-well plate. Glucokinase was then added to initiate the reaction, and the absorbance at 340 nm was monitored every 5 mins. The activity of glucokinase was represented by the initial generation rate of glucose-6-phosphate, which was calculated by drawing the slope values from the absorbance changing curve at 340 nm vs. the time points.

Chain of glucokinase (P35557 whole entry, species assumed): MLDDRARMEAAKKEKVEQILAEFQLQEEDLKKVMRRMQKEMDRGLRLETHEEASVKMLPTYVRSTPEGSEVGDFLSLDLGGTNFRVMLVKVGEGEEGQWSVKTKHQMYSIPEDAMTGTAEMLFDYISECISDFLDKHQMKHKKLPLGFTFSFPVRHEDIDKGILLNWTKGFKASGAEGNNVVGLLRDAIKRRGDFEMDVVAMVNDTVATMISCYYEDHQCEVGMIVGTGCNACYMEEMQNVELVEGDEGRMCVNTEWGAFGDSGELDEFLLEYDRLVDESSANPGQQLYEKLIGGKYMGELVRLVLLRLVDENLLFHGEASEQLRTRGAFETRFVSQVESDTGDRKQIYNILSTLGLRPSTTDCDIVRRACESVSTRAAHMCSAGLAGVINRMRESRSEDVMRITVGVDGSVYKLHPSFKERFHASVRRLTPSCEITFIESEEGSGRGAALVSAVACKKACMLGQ

Row | EC50 [nM] | SMILES
1 | 2000 | CS(=O)(=O)c1ccc(Oc2ccc(Nc3ccc(C(=O)O)cn3)cc2CN2CCCC2=O)cn1 [Example 6, 6-(4-(6-(methylsulfonyl)pyridin-3-yloxy)-3-((2-oxopyrrolidin-1-yl)methyl)phenylamino) nicotinic acid]
2 | 1500 | CN(C)C(=O)c1ccc(Oc2ccc(Nc3ccc(CCC(=O)O)cn3)cc2CN2CCCC2=O)cn1 [Example 78, 3-(6-(4-(6-(dimethylcarbamoyl)pyridin-3-yloxy)-3-((2-oxopyrrolidin-1-yl)methyl)phenylamino)pyridin-3-yl) propanoic acid]
3 | 5000 | CN(C)C(=O)c1ccc(Oc2ccc(Nc3ccccn3)cc2CN2CCCC2=O)cn1 [Example 65, N,N-dimethyl-5-(2-((2-oxopyrrolidin-1-yl)methyl)-4-(pyridin-2-ylamino)phenoxy)picolinamide]
4 | 2000 | Cc1cnc(Nc2ccc(Oc3ccc(S(C)(=O)=O)nc3)c(CN3CCCC3=O)c2)s1 [Example 13, 1-(2-(6-(methylsulfonyl)pyridin-3-yloxy)-5-(5-methylthiazol-2-ylamino)benzyl)pyrrolidin-2-one]
